# Results: patent publication US20100003711A1, “Methods to identify therapeutic agents” (THE SCRIPPS RESEARCH INSTITUTE, priority 2005, published 2010)
# Experiments:
# J774.1 macrophages = experiment: Lipid-loading assay (foam cell formation); assay type: cell-based, murine; settings: LDL 100 μg/mL with 4a or 5a (20 μM), 72 h, unactivated J774.1 macrophages
# Method: Lipid-loading assay (foam cell formation). J774.1 macrophages were incubated in ATCC-recommended media containing 10% fetal bovine serum under a controlled atmosphere of 5 or 7% CO2 at 37° C., in 8-well chamber slides. […] At termination, cells were washed twice with PBS (pH 7.4). The cells were then fixed with 6% (v/v) paraformaldehyde in PBS for 30 minutes, rinsed with propylene glycol for 2 minutes and lipids were stained with 5 mg/ml Oil Red 0 for 8 minutes. The cells were counterstained with Harris' hematoxylin for 45 seconds, and background staining was removed with 6% paraformaldehyde followed by washing once in PBS and once in tap water. Cover slips were mounted onto the glass slides using glycerol and the slide preparations were examined by light microscopy. The number of lipid-laden cells was scored out of a total of at least 100 cells counted in a single field in each slide, and expressed as a percentage of total cells. Photographs were taken at 100× magnification.
# [1] = system: Class A scavenger receptor (SR-A); experiment: Scavenger receptor expression by flow cytometry, SR-A; assay type: cell-based, murine; settings: cultured macrophages, compound in the absence of LDL
# Method: Cell surface CD36 and SR-A were measured by flow cytometry using CD36 (BD Biosciences Pharmingen, San Diego, Calif.) and CD204 (Serotec, Oxford, UK) specific monoclonal antibodies. See Liao et al. (2000) Arterioscler. Thromb. Vasc. Biol. 20: 1968-75; Hu et al. (1996) Blood 87: 2020-28. Murine macrophage J774A.1 cells were serum-starved overnight in media with 0.5% BSA. Cells (1×10^6) treated with cholesterol ozonation products or cholesterol ozonation product complexed with LDL for specified times were then washed twice with PBS. […] Expression of either CD36 or SR-A was determined with CD36 (BD Biosciences Pharmingen, San Diego, Calif.) and CD204 (Serotec, Oxford, U.K.) specific monoclonal antibodies, respectively. After washing off the primary antibody, secondary antibodies were added, cells were washed again, then analyzed on a FACS calibur 2 (Becton Dickinson, Sparks, Md.) flow cytometer and analyzed by CellQuant software. Results were expressed as mean fluorescence intensity±standard error of the mean (SEM) of at least duplicate determinations. Significance was determined using a student two-tail t test, with (*) indicating p<0.05, and (**) indicating p<0.01 versus the control.
# [2] = system: murine macrophage J774A.1; experiment: Modified Boyden chamber migration (chemotaxis) assay; assay type: cell-based
# Method: Chemotaxis and invasion assays were performed using a modified Boyden chamber migration assay. Zwirner et al. (1998) Eur. J. Immunol. 28: 1570-77; Wilkinson (1988) Methods Enzymol. 162: 38-50. Assays were set up on MultiScreen-MIC plates (Millipore, Billerica, Mass., USA) with polyvinylpyrrolidone-free polycarbonate membranes (5 μm pore size). Cells (murine macrophage J774A.1) were washed and resuspended in serum-free DMEM containing 0.2% BSA at 1×10^6 cells/ml. Fifty microliters of cells were added to the upper wells and 150 μl of chemoattractant in DMEM/0.2% BSA were added to the lower wells of the microchamber. Incubation time was for 4 h at 37° C. in an 8% CO2 atmosphere. After swiping cells off the upper side of the membrane, cells on the lower side were visualized by either staining and phase contrast microscopy, or fluorescence. Cells that had adhered to the membrane were stained using a DiffQuik staining kit (Dade Behring, Newark, Del.). Each experiment was performed in triplicate and the numbers of migrating cells were counted in five fields at ×200. Cells harvested with PBS-EDTA for fluorescent labeling were washed two times with PBS, then resuspended in serum-free medium containing calcein AM (5 μM). Cells were incubated for 30 min (37° C., 5% CO2) with gentle intermittent mixing. Calcein-labeled cells were washed twice, and calcein fluorescence ([…]) was measured using a SPECTRAmax™ GEMINI dual-scanning microplate spectrofluorometer. Fluorescence measurements were compared to a standard curve, generated by dilution of cells in PBS/BSA in 100 μl, dispensed into 96-well plates. Fluorescence was quantified as described above.
# ICAM-1 (CD54) = experiment: Endothelial adhesion molecule expression by ELISA, ICAM-1; assay type: cell-based, human
# Method: Endothelial cell surface adhesion molecule expression was measured by ELISA, using anti-human CD54 (ICAM-1), CD106 (VCAM-1) and CD62E (E-Selectin) antibodies (Leinco Technologies, Inc., St. Louis, Mo.). The ELISA method was modified from previously described procedures.
# Cells were then incubated with antibodies to VCAM-1, E-selectin, or ICAM-1 diluted 1:400 in PBS containing 5% FCS at 37° C. for 30 min. Wells were washed two times with PBS, then incubated with horseradish peroxidase (HRP)-conjugated goat anti-mouse IgG (Southern Biotechnology Associates, Birmingham, Ala., USA) in PBS/5% FCS at 37° C. for 30 min. The wells were washed four times with PBS, then incubated with H2O2/3,3′,5,5′-tetramethyl-benzidine peroxidase substrate (Pierce Chemical, Rockford, Ill., USA) for 30 min in the dark. The reaction was stopped by adding 25 μl of 8 N H2SO4, and the plates read on a microplate reader, blanking on wells stained with only secondary antibody. Each assay was performed in triplicate and the data are reported as the mean±SEM as a percentage of the expression level of the vehicle. To study the effect of cholesterol ozonation product 5a concentration (5-50 μM) on E-selectin expression, the assay was performed in an identical fashion as described above, with each point being the mean±SEM of at least duplicate measurements.
# THP-1 monocytes = experiment: Monocyte morphology changes (differentiation into macrophages); assay type: cell-based, human; settings: 12.5 or 25 μM, up to 7 days
# Method: THP-1 monocytes in suspension were plated in 8-well chambered slides. […] Media containing appropriate treatment compounds was replaced after 4 days. After 4 days treatment, morphologic changes of the adherent cells were assessed by phase-contrast microscopy and photographed using an Olympus Microfire digital camera.
# [3] = Aldolization of secoketoaldehyde 4a with atherosclerotic artery and blood fractions (1H NMR); assay type: in vitro ADME, human; settings: in the presence of lyophilized PBS
# Method: Aldolization of secoketoaldehyde 4a with atherosclerotic artery and bloodfractions. […] To this solution was added either a) atherosclerotic artery (2.1 mg) that had been homogenized in PBS (1 ml) in a tissue homogenizer and then lyophilized to dryness, b) lyophilized human blood (1 ml), c) lyophilized human plasma (1 ml) or d) PBS lyophilized (1 ml). At time points samples were removed and analyzed by ^1H NMR vide supra.
smiles,measurement,setting,value
"CC(C)CCC[C@@H](C)[C@H]1CCC2C(CC=O)C([C@@]3(C)CC[C@H](O)CC3=O)CC[C@@]21C (stereo partly drawn) [4a, 3βHydroxy-5-oxo-5,6-secocholestan-6-al]",lipid-loading of macrophages / foam cell formation,J774.1 macrophages,began lipid-loading and foam cells began to appear
same,SR-A expression,[1],did not increase expression of either receptor
same,recruitment (migration) of macrophages,"[2]; 0-25 μM, 4 h, P<0.001",dose-dependent recruitment of macrophages
same,migration of macrophages,[2]; compound co-incubated with BSA,macrophage migration still occurs
same,migration of macrophages,[2]; compound complexed with native LDL (100 μg/ml),no significant migration
same,ICAM-1 levels,"ICAM-1 (CD54); HAAE-1, 25 μM compound in the presence of LDL, 4 h",remain unchanged
same,integrin expression (ICAM-1),"ICAM-1 (CD54); HAAE-1, not complexed with LDL",no effects
same,"THP-1 monocyte differentiation into macrophages (adherence, morphology)",THP-1 monocytes,neither became adherent nor developed the aforementioned morphological changes
same,aldolization of 4a,[3],no aldolization
